In ChEMBL document CHEMBL5346896, “Development of indolealkylamine derivatives as potential multi-target agents for COVID-19 treatment” (Eur J Med Chem, 2023):
Active and inactive are the calls of the source. The calls are words filed in the database; no cut-off is given here.

Columns and labels:
[1] = target: T1, Melatonin receptor type 1B (Homo sapiens, UniProt P49286); test: Displacement of 2-[125I]iodomelatonin from human melatonin MT2 receptor stably expressed in human HEK293 cell membrane assessed as inhibition constant incubated for 120 mins by rapid filtration based competition binding assay; assay type: cell membranes
T1 sequence (P49286 whole entry): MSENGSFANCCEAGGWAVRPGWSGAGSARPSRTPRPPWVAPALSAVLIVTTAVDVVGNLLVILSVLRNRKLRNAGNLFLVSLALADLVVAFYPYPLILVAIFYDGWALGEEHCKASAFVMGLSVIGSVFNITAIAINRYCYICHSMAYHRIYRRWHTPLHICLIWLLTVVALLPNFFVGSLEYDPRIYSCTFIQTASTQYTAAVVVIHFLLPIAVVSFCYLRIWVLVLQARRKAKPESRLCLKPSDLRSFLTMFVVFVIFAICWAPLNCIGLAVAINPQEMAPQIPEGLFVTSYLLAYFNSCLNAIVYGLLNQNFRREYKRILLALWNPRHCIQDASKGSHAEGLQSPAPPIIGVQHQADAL

Homo sapiens [2] = species on record: Homo sapiens; test: Selectivity ratio of pKi for displacement of 2-[125I]iodomelatonin from human melatonin MT1 receptor stably expressed in human HEK293 cell membrane to pKi for displacement of 2-[125I]iodomelatonin from human melatonin MT2 receptor stably expressed in human HEK293 cell membrane
[3] = target: T2, Melatonin receptor type 1A (Homo sapiens, UniProt P48039); test: Displacement of 2-[125I]iodomelatonin from human melatonin MT1 receptor stably expressed in HEK293 cell membrane assessed as inhibition constant incubated for 120 mins by rapid filtration based competition binding assay; assay type: cell membranes
[4] = target: Spike glycoprotein/Angiotensin-converting enzyme 2 (Severe acute respiratory syndrome coronavirus 2) (UniProt Q9BYF1+P0DTC2); test: Inhibition of d2-labelled SARS-CoV-2 spike protein RBD-terbium labelled SNAP tagged human ACE2 interaction transfected in HEK293 cells at 100 uM preincubated with cells for 1 hrs followed by RBD-d2 addition and measured after 2 hrs by TR-FRET assay relative to control; assay type: cell-based; conditions: time 3.0 hrs
[5] = target: Angiotensin-converting enzyme 2 (Homo sapiens) (UniProt Q9BYF1); test: Inhibition of recombinant ACE2 (unknown origin) exopeptidase activity using fluorogenic substrate at 0.5 to 10 uM incubated for 1 hrs by fluorescence based analysis; conditions: dose 0.5-10 µM
[6] = target: T1, Melatonin receptor type 1B; test: Partial agonist activity at human melatonin MT2 receptor expressed in HEK293 cells co-transfected with Galphai9 chimera construct assessed as stimulation of inositol phosphate production by HTRF based assay; assay type: functional, cell-based
[7] = Inhibition of CAMKII (unknown origin) using syntide-2 as substrate assessed as maximum efficacy incubated for 30 mins by spectrophotometric analysis; parameters: species or system Homo sapiens
[8] = target: T2, Melatonin receptor type 1A; test: Partial agonist activity at human melatonin MT1 receptor expressed in HEK293 cells co-transfected with Galphai9 chimera construct assessed as stimulation of inositol phosphate production by HTRF based assay; assay type: functional, cell-based
Homo sapiens [9] = species on record: Homo sapiens; test: Inhibition of CAMKII (unknown origin) using syntide-2 as substrate assessed as maximum efficacy at 50 uM incubated for 30 mins by spectrophotometric analysis relative to control
HEK-293T = test: Cytotoxicity against HEK293T cells expressing human ACE2 assessed as effect on cell viability; assay type: toxicity, cell-based
[10] = target: Replicase polyprotein 1ab (Severe acute respiratory syndrome coronavirus 2) (UniProt P0DTD1); test: Inhibition of SARS-CoV-2 main protease transfected in HEK293T cells co-transfected with gain of signal Src and Tat-Luc reporter construct at 1 uM measured 48 hrs post transfection by luciferase based analysis relative to control; assay type: cell-based
SARS-CoV-2 [11] = test: Antiviral activity against SARS-CoV-2 infected in African green monkey Vero cells assessed as inhibition of viral replication at 10 uM preincubated with cells for 1 hrs followed by viral infection by FISH-flow quantification analysis; assay type: functional, organism-based; conditions: Severe acute respiratory syndrome coronavirus 2
Vero [12] = test: Cytotoxicity against African green monkey Vero cells infected with SARS-CoV-2 assessed as effect on cell viability; assay type: toxicity, cell-based; conditions: chlorocebus sabaeus
SARS-CoV-2 [13] = test: Antiviral activity against SARS-CoV-2 infected in African green monkey Vero cells assessed as inhibition of viral replication at 1 uM preincubated with cells for 1 hrs followed by viral infection by FISH-flow quantification analysis; assay type: functional, organism-based; conditions: Severe acute respiratory syndrome coronavirus 2
Vero [14] = test: Cytotoxicity against African green monkey Vero cells assessed as effect on cell viability; assay type: toxicity, cell-based; conditions: chlorocebus sabaeus
SARS-CoV-2 [15] = test: Antiviral activity against SARS-CoV-2 assessed as inhibition of viral replication; assay type: functional, organism-based; conditions: Severe acute respiratory syndrome coronavirus 2
[16] = target: Angiotensin-converting enzyme 2 (Homo sapiens) (UniProt Q9BYF1); test: Inhibition of recombinant ACE2 (unknown origin) exopeptidase activity using fluorogenic substrate at 0.5 to 10 uM incubated for 1 hrs by fluorescence based analysis relative to control; conditions: dose 0.5-10 µM
[17] = target: T2, Melatonin receptor type 1A; test: Inverse agonist activity at human melatonin MT1 receptor expressed in HEK293 cells co-transfected with Galphai9 chimera construct assessed as stimulation of inositol phosphate production by HTRF based assay; assay type: functional, cell-based

T2 sequence (P48039 whole entry): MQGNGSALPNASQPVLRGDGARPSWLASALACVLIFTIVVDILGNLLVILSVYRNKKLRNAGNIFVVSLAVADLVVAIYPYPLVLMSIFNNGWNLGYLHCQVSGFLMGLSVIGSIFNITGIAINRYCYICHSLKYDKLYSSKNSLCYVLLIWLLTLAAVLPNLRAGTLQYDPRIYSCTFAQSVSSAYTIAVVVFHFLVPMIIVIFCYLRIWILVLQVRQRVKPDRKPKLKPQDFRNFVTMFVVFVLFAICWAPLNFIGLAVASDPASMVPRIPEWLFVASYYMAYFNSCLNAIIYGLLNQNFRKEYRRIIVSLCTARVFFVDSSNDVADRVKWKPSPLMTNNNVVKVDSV
Angiotensin-converting enzyme 2 (Homo sapiens), sequence (Q9BYF1 18-805 limits assumed): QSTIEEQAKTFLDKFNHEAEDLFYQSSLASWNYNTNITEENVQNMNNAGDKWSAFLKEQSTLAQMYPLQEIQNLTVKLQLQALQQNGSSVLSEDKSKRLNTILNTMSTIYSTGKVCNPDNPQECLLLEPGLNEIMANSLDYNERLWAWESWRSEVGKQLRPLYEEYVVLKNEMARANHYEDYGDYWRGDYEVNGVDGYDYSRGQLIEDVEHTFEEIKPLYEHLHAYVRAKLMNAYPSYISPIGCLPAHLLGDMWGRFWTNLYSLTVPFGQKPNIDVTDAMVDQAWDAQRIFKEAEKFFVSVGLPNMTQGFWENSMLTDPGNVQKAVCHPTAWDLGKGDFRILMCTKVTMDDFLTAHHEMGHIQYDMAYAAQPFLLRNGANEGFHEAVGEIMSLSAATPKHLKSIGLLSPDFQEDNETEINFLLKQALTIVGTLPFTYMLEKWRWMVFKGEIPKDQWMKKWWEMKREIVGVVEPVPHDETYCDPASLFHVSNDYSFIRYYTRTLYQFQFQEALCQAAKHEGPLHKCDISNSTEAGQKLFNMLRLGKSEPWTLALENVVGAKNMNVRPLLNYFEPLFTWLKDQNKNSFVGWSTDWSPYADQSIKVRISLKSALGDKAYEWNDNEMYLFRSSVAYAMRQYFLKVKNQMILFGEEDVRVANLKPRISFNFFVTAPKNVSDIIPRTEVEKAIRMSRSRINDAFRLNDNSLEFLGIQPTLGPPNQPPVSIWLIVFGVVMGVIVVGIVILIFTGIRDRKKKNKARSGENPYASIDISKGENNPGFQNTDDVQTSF

SMILES	Ki [1] [µM]	Ratio pKi (Homo sapiens [2])	Ki [3] [µM]	inhibition [4] [%]	inhibition [5]	Imax (Homo sapiens [9]) [%]	also measured
COC(=O)NCCc1c(C(O)c2ccc(Cl)cc2)[nH]c2ccccc12 (centres undefined)	5.25	0.87	25.1				
COc1ccc(C(O)c2[nH]c3ccc(OC)cc3c2CCNC(C)=O)cc1 (centres undefined)	0.427	0.8	7.59	20	inactive		
COC(=O)NCCc1c(C(O)c2ccc(OC)cc2)[nH]c2ccc(OC)cc12 (centres undefined)	66.1	0.94	110	20	inactive		
COc1ccc2[nH]c(C(O)c3ccc(F)cc3)c(CCNC(C)=O)c2c1 (centres undefined)	4.57	0.98	5.37	20	inactive	40	EC50 [6]: < 10 µM; EC50 [7]: ~25 µM; EC50 [8]: < 10 µM
CCC(=O)NCC[C@@H]1CCc2ccc3c(c21)CCO3						20	
COC(=O)NCCc1c(C(O)c2ccc(OC)cc2F)[nH]c2ccc(OC)cc12 (centres undefined)	4.9	1.07	2.04		inactive		EC50 [6]: < 10 µM; EC50 [8]: < 10 µM
COc1ccc2[nH]c(C(O)c3ccc(Cl)cc3)c(CCNC(C)=O)c2c1 (centres undefined)	0.0513		0.513	35	inactive	40	Activity (HEK-293T): Non-Toxic; EC50 [7]: ~25 µM; inhibition [10]: < 20%; Activity (SARS-CoV-2 [11]): inactive; Activity (Vero [12]): Non-Toxic; Activity (SARS-CoV-2 [13]): inactive; Activity (Vero [14]): Non-Toxic
COc1ccc2[nH]c(C(O)c3ccccc3)c(CCNC(C)=O)c2c1 (centres undefined)	0.977	0.98	1.26	20	inactive		EC50 [6]: 0.224 µM; EC50 [8]: 0.525 µM
COC(=O)NCCc1c(C(O)c2ccc(F)cc2)[nH]c2ccc(OC)cc12 (centres undefined)	0.741	0.94	1.82		inactive		EC50 [6]: 0.257 µM; EC50 [8]: 3.16 µM
COc1ccc2cccc(CCNC(C)=O)c2c1						20	
COc1ccc2[nH]cc(CCNC(C)=O)c2c1						20	
COc1ccc(C(O)c2[nH]c3ccc(OC)cc3c2CCNC(C)=O)c(F)c1 (centres undefined)	0.295	0.79	6.76		inactive		
CC(=O)NCCc1c(C(O)c2ccccc2)[nH]c2ccccc12 (centres undefined)	1	0.93	2.75				
COC(=O)NCCc1c(C(O)c2ccccc2)[nH]c2ccccc12 (centres undefined)	2	0.81	22.9				
O=C(Oc1cncc(Cl)c1)c1cccc2[nH]ccc12							IC50 (SARS-CoV-2 [15]): 2.8 µM
CN1CC(=O)NC(CCc2c(C(O)c3ccccc3N)[nH]c3ccccc23)C1=O (centres undefined)	17	0.92	41.7				
CC(=O)NCC(=O)N[C@@H](CC(=O)O)C(=O)N[C@@H](Cc1ccc(O)cc1)C(=O)N[C@@H](CO)C(=O)N[C@@H](Cc1cnc[nH]1)C(=O)N[C@H]1CSSC[C@@H](C(=O)N[C@H](C(=O)N[C@@H](Cc2ccc(O)cc2)C(=O)N2CCC[C@H]2C(=O)N[C@@H](CC(=O)O)C(=O)N2CCC[C@H]2C(=O)N[C@@H](CCC(=O)O)C(=O)NCC(=O)NCC(=O)NCC(N)=O)[C@@H](C)O)NC(=O)[C@H](CCCCN)NC(=O)[C@H](Cc2c[nH]c3ccccc23)NC(=O)[C@H](Cc2c[nH]c3ccccc23)NC(=O)[C@@H]2CCCN2C(=O)[C@H](Cc2ccc(O)cc2)NC(=O)[C@H](Cc2ccc(O)cc2)NC(=O)[C@H](CCCNC(=N)N)NC(=O)[C@H](CC(C)C)NC(=O)[C@@H]2CCCN2C(=O)[C@H](CO)NC1=O							inhibition [16]: 100%
COC(=O)NCCc1c(C(O)c2ccccc2)[nH]c2ccc(OC)cc12 (centres undefined)	0.191		0.891	20	inactive	40	EC50 [6]: < 10 µM; Activity (HEK-293T): Non-Toxic; EC50 [7]: ~25 µM; inhibition [10]: > 70%; EC50 [8]: < 10 µM; Activity (SARS-CoV-2 [11]): Active; Activity (Vero [12]): Non-Toxic; Activity (SARS-CoV-2 [13]): inactive; Activity (Vero [14]): Non-Toxic
CC(=O)NCCc1c(C(O)c2ccc(Cl)cc2)[nH]c2ccccc12 (centres undefined)	4.37	0.99	4.47	20	inactive		
O=C(NCCc1c(C(O)c2ccccc2)[nH]c2ccccc12)C(F)(F)F (centres undefined)	1.15	0.94	2.51				EC50 [17]: < 10 µM
